Results from ChEMBL document CHEMBL3621049, “Imidazole derivatives show anticancer potential by inducing apoptosis and cellular senescence” (2014).
Calls of active or inactive are those of the source.

How the values were obtained:
Type in all cases: functional, cell-based
SK-MEL-5 = test: Growth inhibition of human SK-MEL-5 cells at 10 uM by sulforhodamine B assay
ACHN = test: Growth inhibition of human ACHN cells at 10 uM by sulforhodamine B assay
A549 = test: Growth inhibition of human A549/ATCC cells at 10 uM by sulforhodamine B assay
M14 = test: Growth inhibition of human M14 cells at 10 uM by sulforhodamine B assay
SF-539 = test: Growth inhibition of human SF539 cells at 10 uM by sulforhodamine B assay
MDA-MB-231 = test: Growth inhibition of human MDA-MB-231 cells at 10 uM by sulforhodamine B assay
OVCAR-4 = test: Growth inhibition of human OVCAR4 cells at 10 uM by sulforhodamine B assay
SNB-75 = test: Growth inhibition of human SNB75 cells at 10 uM by sulforhodamine B assay
COLO 205 = test: Growth inhibition of human COLO205 cells at 10 uM by sulforhodamine B assay
UO-31 = test: Growth inhibition of human UO31 cells at 10 uM by sulforhodamine B assay
T47D = test: Growth inhibition of human T47D cells at 10 uM by sulforhodamine B assay
CAKI-1 = test: Growth inhibition of human Caki1 cells at 10 uM by sulforhodamine B assay
HCT-15 = test: Growth inhibition of human HCT15 cells at 10 uM by sulforhodamine B assay
NCI-H23 = test: Growth inhibition of human NCI-H23 cells at 10 uM by sulforhodamine B assay
SNB-19 = test: Growth inhibition of human SNB19 cells at 10 uM by sulforhodamine B assay
UACC-62 = test: Growth inhibition of human UACC62 cells at 10 uM by sulforhodamine B assay
KM12 = test: Growth inhibition of human KM12 cells at 10 uM by sulforhodamine B assay
OVCAR-3 = test: Growth inhibition of human OVCAR3 cells at 10 uM by sulforhodamine B assay
SK-MEL-28 = test: Growth inhibition of human SK-MEL-28 cells at 10 uM by sulforhodamine B assay
OVCAR-5 = test: Growth inhibition of human OVCAR5 cells at 10 uM by sulforhodamine B assay
CCRF-CEM = test: Growth inhibition of human CCRF-CEM cells at 10 uM by sulforhodamine B assay
RPMI-8226 = test: Growth inhibition of human RPMI8226 cells at 10 uM by sulforhodamine B assay
TK-10 = test: Growth inhibition of human TK10 cells at 10 uM by sulforhodamine B assay
HOP-62 = test: Growth inhibition of human HOP62 cells at 10 uM by sulforhodamine B assay
NCI-H522 = test: Growth inhibition of human NCI-H522 cells at 10 uM by sulforhodamine B assay
A498 = test: Growth inhibition of human A498 cells at 10 uM by sulforhodamine B assay
SF-295 = test: Growth inhibition of human SF295 cells at 10 uM by sulforhodamine B assay
UACC-257 = test: Growth inhibition of human UACC257 cells at 10 uM by sulforhodamine B assay
DU-145 = test: Growth inhibition of human DU145 cells at 10 uM by sulforhodamine B assay
IGROV-1 = test: Growth inhibition of human IGROV1 cells at 10 uM by sulforhodamine B assay
Hs-578T = test: Growth inhibition of human Hs 578T cells at 10 uM by sulforhodamine B assay
HOP-92 = test: Growth inhibition of human HOP92 cells at 10 uM by sulforhodamine B assay
786-0 = test: Growth inhibition of human 786-0 cells at 10 uM by sulforhodamine B assay
NCI/ADR-RES = test: Growth inhibition of human NCI/ADR-RES cells at 10 uM by sulforhodamine B assay
U-251 = test: Growth inhibition of human U251 cells at 10 uM by sulforhodamine B assay
NCI-H226 = test: Growth inhibition of human NCI-H226 cells at 10 uM by sulforhodamine B assay
PC-3 = test: Growth inhibition of human PC3 cells at 10 uM by sulforhodamine B assay
K562 = test: Growth inhibition of human K562 cells at 10 uM by sulforhodamine B assay
SN12C = test: Growth inhibition of human SN12C cells at 10 uM by sulforhodamine B assay
HL-60(TB) = test: Growth inhibition of human HL-60(TB) cells at 10 uM by sulforhodamine B assay
OVCAR-8 = test: Growth inhibition of human OVCAR8 cells at 10 uM by sulforhodamine B assay
LOX IMVI = test: Growth inhibition of human LOXIMVI cells at 10 uM by sulforhodamine B assay
NCI-H322M = test: Growth inhibition of human NCI-H322M cells at 10 uM by sulforhodamine B assay
HT-29 = test: Growth inhibition of human HT-29 cells at 10 uM by sulforhodamine B assay
SW-620 = test: Growth inhibition of human SW620 cells at 10 uM by sulforhodamine B assay
BT-549 = test: Growth inhibition of human BT549 cells at 10 uM by sulforhodamine B assay
HCT-116 = test: Growth inhibition of human HCT116 cells at 10 uM by sulforhodamine B assay
SK-MEL-2 = test: Growth inhibition of human SK-MEL-2 cells at 10 uM by sulforhodamine B assay
NCI-H460 = test: Growth inhibition of human NCI-H460 cells at 10 uM by sulforhodamine B assay
MCF7 = test: Growth inhibition of human MCF7 cells at 10 uM by sulforhodamine B assay
MDA-MB-468 = test: Growth inhibition of human MDA-MB-468 cells at 10 uM by sulforhodamine B assay
SR = test: Growth inhibition of human SR cells at 10 uM by sulforhodamine B assay
MDA-MB-435 = test: Growth inhibition of human MDA-MB-435 cells at 10 uM by sulforhodamine B assay
MOLT-4 = test: Growth inhibition of human MOLT4 cells at 10 uM by sulforhodamine B assay
SK-OV-3 = test: Growth inhibition of human SKOV3 cells at 10 uM by sulforhodamine B assay
HCC 2998 = test: Growth inhibition of human HCC2998 cells at 10 uM by sulforhodamine B assay
SF-268 = test: Growth inhibition of human SF268 cells at 10 uM by sulforhodamine B assay
RXF 393 = test: Growth inhibition of human RXF393 cells at 10 uM by sulforhodamine B assay
Malme-3M = test: Growth inhibition of human MALME-3M cells at 10 uM by sulforhodamine B assay

Measured: growth inhibition (GI)

COc1ccc(-c2nc(-c3ccccc3)c(-c3ccccc3)n2C2CC2)cc1OC1CCCC1
active: all assays above

CCCCCCn1c(-c2ccc(OC)c(OC3CCCC3)c2)nc(-c2ccccc2)c1-c1ccccc1
active: all assays above
